Assay results reported in US20240391923A1, “METHIONINE ADENOSYLTRANSFERASE 2A INHIBITOR FOR TREATING MTAP DELETION-TYPE CANCER” (SUZHOU GENHOUSE BIO CO., LTD., priority 2022, published 2024).
Like-named read-outs stand apart in the source and are kept apart here.

Assays:
[1] = system: SDMA in HCT116-MTAP-knockout cell line; assay: Cell symmetric dimethylarginine (SDMA) test, In-cell Western, HCT116-MTAP-knockout; format: cell-based; settings: Homo sapiens, 96 h
[2] = system: SDMA in human colon cancer cell line HCT116; assay: Cell symmetric dimethylarginine (SDMA) test, In-cell Western, HCT116 (MTAP wild-type); format: cell-based; settings: Homo sapiens, HCT-116, 96 h
In short: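 SDMA level, an indirect readout of cellular MAT2A inhibition, measured by In-cell Western as background-subtracted 800/700 nm signal against DRAQ5. Cells exposed 4 days to six 1:4-diluted doses from 6 μM; inhibition relative to DMSO, IC50 from sigmoidal fit.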

DOHH-2 cell strain = assay: Tumor cell proliferation inhibition assay (CellTiter-Glo), DOHH-2; format: cell-based; settings: Homo sapiens, 120 h, DOHH-2 cells, 5-day treatment
Method: (§1) After the HCT116-MTAP-knockout (−/−) cell strain, the HCT116-MTAP wild-type(+/+)-cell strain, the DOHH-2 cell strain, or the Hut-78 cell strain was treated with the test compound for 5 days, the ATP level was measured using a CellTiter-Glo kit of Promega to evaluate the inhibition of the test compound against the growth of the tumor cell strain.
(§2) In the present application, the HCT116-MTAP-knockout (−/−) cell strain, the HCT116-MTAP wild-type (+/+)-cell strain, the DOHH-2 cell strain, or the Hut-78 cell strain was seeded into a 96-well cell culture plate at an appropriate cell density. After 24 h, the cells were treated using the test compounds diluted 1:3 fold at the highest concentration of 10 μM for 10 gradients, and a DMSO treatment group was set up separately. The cells were cultured in a 37° C./5% CO2 incubator for 5 days.

[3] = molecular target: MAT2A recombinant protein (Homo sapiens, UniProt P31153); assay: MAT2A inhibitory activity (malachite green colorimetric enzyme assay); format: biochemical
Chain of MAT2A recombinant protein (P31153 whole entry): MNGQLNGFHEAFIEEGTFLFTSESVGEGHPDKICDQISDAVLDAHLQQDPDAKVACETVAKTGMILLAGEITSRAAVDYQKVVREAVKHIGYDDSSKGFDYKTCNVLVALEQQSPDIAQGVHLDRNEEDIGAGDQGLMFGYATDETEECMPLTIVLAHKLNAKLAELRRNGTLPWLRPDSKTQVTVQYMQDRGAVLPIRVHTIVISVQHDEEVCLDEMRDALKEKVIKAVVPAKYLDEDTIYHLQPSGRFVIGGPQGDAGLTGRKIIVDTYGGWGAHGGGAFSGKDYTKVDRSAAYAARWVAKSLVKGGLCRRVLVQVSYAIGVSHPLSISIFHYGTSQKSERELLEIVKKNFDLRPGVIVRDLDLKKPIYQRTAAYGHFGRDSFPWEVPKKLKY
In short: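 Compounds tested over 10 points, 3-fold dilutions, top final concentration 1000 nM. Enzyme reaction: MAT2A, L-methionine, ATP, room temperature, 60 min, in HEPES pH 7.5 buffer with KCl, MgCl2 and DTT; inorganic phosphate read colorimetrically (malachite green, A630). Inhibition vs log concentration fitted for IC50.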

[4] = system: HCT116-MTAP-knockout (−/−) cell strain; assay: Tumor cell proliferation inhibition assay (CellTiter-Glo), HCT116-MTAP-knockout (-/-); format: cell-based; settings: Homo sapiens, 120 h, HCT116-MTAP-knockout (−/−) cells, 5-day treatment
In short: (§3)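 Growth inhibition is evaluated from cellular ATP measured with CellTiter-Glo once cells have been treated for 5 days. Compounds are added 24 h after seeding as ten threefold dilutions starting at 10 μM, with a separate DMSO treatment group.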

[5] = system: HCT116-MTAP wild-type (+/+)-cell strain; assay: Tumor cell proliferation inhibition assay (CellTiter-Glo), HCT116-MTAP wild-type (+/+); format: cell-based; settings: Homo sapiens, 120 h, HCT116-MTAP wild-type (+/+) cells, 5-day treatment
In short: as §3

Hut-78 cell strain = assay: Tumor cell proliferation inhibition assay (CellTiter-Glo), Hut-78; format: cell-based; settings: Hut-78 cells, 5-day treatment
Method: as §1, §2

[6] = Pharmacokinetic test in mice (IV and PO); format: in vivo; settings: mouse, plasma, BALB/c mice; for half-life: read-out: T½ (converted)
[7] = IC50 score class, read-out: Cell 96 h SDMA Inhibition (HCT116-MTAP−/−) (score)
[8] = read-out: Cell 96 h SDMA Inhibition (HCT116-MTAP−/−)
[9] = IC50 score class, read-out: Cell 96 h SDMA Inhibition (HCT116-MTAP+/+) (score)
[10] = IC50 score, read-out: Tumor cell 5-day relative growth inhibition (DOHH-2) (nM), score
[11] = IC50 value, read-out: Tumor cell 5-day relative growth inhibition (DOHH-2)
[12] = read-out: Cell 96 h SDMA inhibition (HCT116-MTAP+/+)
[13] = IC50 score class, read-out: MAT2A Inhibition (score)
[14] = IC50 score, read-out: Tumor cell 5-day relative growth inhibition (HCT116-MTAP−/−) (nM), score
[15] = IC50 value, read-out: Tumor cell 5-day relative growth inhibition (HCT116-MTAP−/−)
[16] = IC50 score, read-out: Tumor cell 5-day relative growth inhibition (HCT116-MTAP+/+) (nM), score
[17] = IC50 value, read-out: Tumor cell 5-day relative growth inhibition (HCT116-MTAP+/+)
[18] = Homo sapiens, HuT78, 120 h, IC50 score, read-out: Tumor cell 5-day relative growth inhibition (Hut-78) (nM), score
[19] = Homo sapiens, HuT78, 120 h, IC50 value, read-out: Tumor cell 5-day relative growth inhibition (Hut-78)

SMILES	IC50 [1, 7] [nM]	IC50 [1, 8] [nM]	IC50 [2, 9] [nM]	IC50 (DOHH-2 cell strain; [10]) [nM]	IC50 (DOHH-2 cell strain; [11]) [nM]	IC50 [2, 12] [nM]	IC50 [3, 13] [nM]	IC50 ([3]; read-out: MAT2A Inhibition) [nM]	IC50 [4, 14] [nM]	IC50 [4, 15] [nM]	IC50 [5, 16] [nM]	IC50 [5, 17] [nM]	IC50 (Hut-78 cell strain; [18]) [nM]	IC50 (Hut-78 cell strain; [19]) [nM]	also measured
CCn1cc2c(n1)c(=O)n(-c1cnccn1)c1cc(Cl)ccc21 [Compound B6]	> 3000	3570	200 to 1000	≥ 2000	16900	–	–	–	–	–	–	–	–	–	–
CCn1cc2c(n1)c(=O)n(-c1cccc(O)c1)c1cc(Cl)ccc21 [Compound B8]	200 to 1000	271	1000 to 3000	500 to 2000	1000	2100	–	–	–	–	–	–	–	–	–
CCn1cc2c(n1)c(=O)n(-c1cccc(C#N)c1)c1cc(Cl)ccc21 [Compound B9]	200 to 1000	328	1000 to 3000	500 to 2000	1090	2350	–	–	–	–	–	–	–	–	–
CCn1cc2c(n1)c(=O)n(-c1cncc(F)c1)c1cc(Cl)ccc21 [Compound B14]	1000 to 3000	–	1000 to 3000	≥ 2000	6680	–	< 100	66.9	–	–	–	–	–	–	–
CCn1cc2c(n1)c(=O)n(Cc1c[nH]cn1)c1cc(Cl)ccc21 [Compound B18]	> 3000	8410	–	≥ 2000	> 2000	–	100 to 1000	149	–	–	–	–	–	–	–
CCn1nc2c(=O)n(-c3cccnc3)c3cc(Cl)ccc3c2c1Cl [Compound B20]	200 to 1000	521	> 3000	≥ 2000	2360	5150	< 100	37.2	–	–	–	–	–	–	–
Cn1nc2c(=O)n(-c3cccnc3)c3cc(Cl)ccc3c2c1C(F)F [Compound B27]	1000 to 3000	1280	> 3000	≥ 2000	11700	> 3000	< 100	77	–	–	–	–	–	–	–
O=c1c2nn(CCO)cc2c2ccc(Cl)cc2n1-c1cccnc1 [Compound B46]	200 to 1000	236	> 3000	≥ 2000	6030	19400	–	–	–	–	–	–	–	–	–
O=c1c2nn(C(F)F)cc2c2ccc(Cl)cc2n1-c1cccnc1 [Compound B55]	< 200	118	1000 to 3000	–	–	1520	< 100	18	< 500	104	≥ 2000	3570	< 500	83	–
Cn1cc2c(n1)c(=O)n(-c1cccnc1)c1cc(C3CC3)ccc21 [Compound B70]	200 to 1000	375	1000 to 3000	500 to 2000	1930	1550	–	–	–	–	–	–	–	–	–
Cn1cc2c(n1)c(=O)n(-c1cccnc1)c1nc(C3CC3)ccc21 [Compound B71]	200 to 1000	203	1000 to 3000	500 to 2000	1290	1270	–	–	–	–	–	–	–	–	–

Now from value to compound, other results behind:

IC50 [1, 7] [nM]	IC50 [1, 8] [nM]	IC50 [2, 9] [nM]	IC50 (DOHH-2 cell strain; [10]) [nM]	IC50 (DOHH-2 cell strain; [11]) [nM]	IC50 [2, 12] [nM]	IC50 [3, 13] [nM]	IC50 ([3]; read-out: MAT2A Inhibition) [nM]	IC50 [4, 14] [nM]	IC50 [4, 15] [nM]	IC50 [5, 16] [nM]	IC50 [5, 17] [nM]	IC50 (Hut-78 cell strain; [18]) [nM]	IC50 (Hut-78 cell strain; [19]) [nM]	SMILES	also measured
< 200	63.6	200 to 1000	500 to 2000	811	636	< 100	26.8	–	–	–	–	–	–	Cc1c2c(nn1C)c(=O)n(-c1cccnc1)c1cc(Cl)ccc21 [Compound B16]	–
< 200	169	200 to 1000	≥ 2000	8080	971	< 100	65.3	–	–	–	–	–	–	CCn1cc2c(n1)c(=O)n(-c1c(C)ccnc1C)c1cc(Cl)ccc21 [Compound B31]	–
< 200	53.9	1000 to 3000	≥ 2000	2700	2260	< 100	43.5	–	–	–	–	–	–	CCn1cc2c(n1)c(=O)n(-c1cccnc1C(F)(F)F)c1cc(Cl)ccc21 [Compound B32]	–
< 200	5.2	< 200	–	–	158	< 100	29.4	< 500	5.14	< 500	293	< 500	27.2	Cc1ncccc1-n1c(=O)c2n[nH]cc2c2ccc(C(F)(F)F)nc21 [Compound B96]	–
< 200	12.3	200 to 1000	–	–	561	< 100	39.7	< 500	13.6	< 500	488	< 500	49.2	Cc1ncccc1-n1c(=O)c2nn(C)c(C)c2c2ccc(C(F)(F)F)nc21 [Compound B189]	–
< 200	29.3	1000 to 3000	–	–	1290	< 100	41	< 500	35.6	500 to 2000	942	< 500	95.6	Cc1ncccc1-n1c(=O)c2nn(CC3CC3)cc2c2ccc(C(F)(F)F)nc21 [Compound B191]	–
< 200	48.5	200 to 1000	–	–	567	< 100	17.1	< 500	31.5	500 to 2000	745	< 500	40.2	Cc1c2c(nn1C)c(=O)n(-c1cccnc1)c1nc(C(F)(F)F)ccc21 [Compound B198]	AUC ([6]; IV 2 mg/kg): 8.7 µM·h; clearance ([6]; IV 2 mg/kg): 10.7 mL/min/kg; bioavailability ([6]; IV 2 mg/kg, PO 10 mg/kg): 150%; half-life ([6]; IV 2 mg/kg): 40.9 min; Vd ([6]; IV 2 mg/kg, read-out: Vz): 0.6 L/kg; AUC ([6]; PO 10 mg/kg): 65.2 µM·h; half-life ([6]; PO 10 mg/kg): 55.1 min
< 200	184	200 to 1000	–	–	899	< 100	53.7	< 500	181	≥ 2000	53800	< 500	323	O=c1c2nn(CC3CC3)cc2c2ccc(C(F)(F)F)nc2n1-c1cccnc1 [Compound B199]	–
200 to 1000	210	1000 to 3000	–	–	1180	< 100	21.7	< 500	104	≥ 2000	4200	< 500	310	O=c1c2nn(C3CC3)cc2c2ccc(C(F)(F)F)nc2n1-c1cccnc1 [Compound B215]	–
< 200	6.35	200 to 1000	–	–	250	< 100	13.4	< 500	15.5	< 500	135	< 500	–	Cc1ncccc1-n1c(=O)c2nn(C)cc2c2ccc(Cl)cc21 [Compound B233]	IC50 (Hut-78 cell strain; IC50 value, read-out: Tumor cell 5-day relative growth inhibition (Hut-78)): 8.05 nM
